Patent US20230085307A1, “PYRIDAZINONE COMPOUND AND HERBICIDE” (NISSAN CHEMICAL CORPORATION, priority 2019, published 2023)

What was measured:
persian speedwell = assay: Test Example 5: herbicidal effect by foliage application, plastic box (Table 20, symbol R); format: in vivo, Persian speedwell (Veronica persica); settings: foliage application, 320 g/ha, three weeks after application
In short: (§1)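 Plants sown in sterilized diluvial soil and grown 14 days in a greenhouse at 25° C to 30° C, then sprayed on the foliage with the compound's emulsion diluted in water to a predetermined herbicide amount. Injury to weeds and crops scored three weeks after application on a visual rating scale.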

chickweed = assay: Test Example 5: herbicidal effect by foliage application, plastic box (Table 20, symbol P); format: in vivo, common chickweed (Stellaria media); settings: foliage application, 320 g/ha, three weeks after application
In short: as §1

southern crabgrass [1] = assay: Test Example 5: herbicidal effect by foliage application, plastic box (Table 20, symbol F); format: in vivo, southern crabgrass (Digitaria ciliaris); settings: foliage application, 320 g/ha, three weeks after application
In short: as §1

blackgrass [2] = assay: Test Example 5: herbicidal effect by foliage application, plastic box (Table 20, symbol J); format: in vivo, blackgrass (Alopecurus myosuroides); settings: foliage application, 320 g/ha, three weeks after application
In short: as §1

Japanese bulrush [3] = assay: Test Example 2: herbicidal activity, application during weed generation under submerged conditions (Table 17, symbol B); format: in vivo, Japanese bulrush (Schoenoplectus juncoides); settings: AAH 320 g/ha; application during weed generation, submerged conditions
Protocol: (§2) [Test Example 2] Herbicidal Activity Test by Application during Weed Generation under Submerged Conditions After alluvial soil was placed into 1/10000 are of Wagner pot, water was poured and mixed to form a submerged condition having a water depth of 4 cm. Seeds of late watergrass, Japanese bulrush, and oval-leafed pondweed were sowed in a mixed manner in the aforementioned pot, and the pot was placed in a greenhouse at 25° C. to 30° C. for growth of the plants. When late watergrass, Japanese bulrush, and oval-leafed pondweed were grown to one leaf stage to two leaf stage, the emulsion agent of the compound of the present invention prepared according to Formulation Example 2 was diluted with water so as to achieve a predetermined herbicide amount, and the diluted emulsion agent was applied to the surface of the water. Three weeks after the herbicide application, the effect of the herbicide on each plant was evaluated according to the criteria of Test Example 1.

rice flat sedge = assay: Test Example 3: herbicidal effect by foliage application, Wagner pot (Table 18, symbol E); format: in vivo, rice flat sedge (Cyperus iria); settings: 320 g/ha
In short: (§3)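 Plants were sown in alluvial soil held under 0.1–0.5 cm standing water and grown 14 days in a greenhouse at 25–30 °C. An emulsifiable formulation, water-diluted to the set dose, was then sprayed onto the foliage, and effects were scored three weeks later using previously defined criteria.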

oval-leafed pondweed [4] = assay: Test Example 1: herbicidal activity, application before weed generation under submerged conditions (Table 16, symbol C); format: in vivo, oval-leafed pondweed (Monochoria vaginalis); settings: 320 g/ha applied herbicide
In short: (§4)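 Emulsion formulation, water-diluted to set dose, was put onto the flooded surface (4 cm depth, alluvial soil) the same day weeds were sown and 2.5-leaf rice transplanted. After 3 weeks at 25-30 °C under glass, each species was rated 0 (≤5% kill) to 5 (≥90% kill).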

Italian ryegrass [5] = assay: Test Example 5: herbicidal effect by foliage application, plastic box (Table 20, symbol K); format: in vivo, Italian ryegrass (Lolium multiflorum); settings: foliage application, 320 g/ha, three weeks after application
In short: as §1

blackgrass [6] = assay: Test Example 4: herbicidal effect by soil treatment (Table 19, symbol J); format: in vivo, blackgrass (Alopecurus myosuroides); settings: amount of applied herbicide 320 g/ha
In short: (§5)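 Three weeks of greenhouse growth at 25° C. to 30° C. followed a uniform surface spray of water-diluted emulsion at a predetermined herbicide amount. Seeds had been sown beforehand under about 1.5 cm of sterilized diluvial soil. Grading followed criteria set out in an earlier test.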

wild oat [7] = assay: Test Example 5: herbicidal effect by foliage application, plastic box (Table 20, symbol I); format: in vivo, wild oat (Avena fatua); settings: foliage application, 320 g/ha, three weeks after application
In short: as §1

southern crabgrass [8] = assay: Test Example 4: herbicidal effect by soil treatment (Table 19, symbol F); format: in vivo, southern crabgrass (Digitaria ciliaris); settings: amount of applied herbicide 320 g/ha
In short: as §5

redroot pigweed [9] = assay: Test Example 4: herbicidal effect by soil treatment (Table 19, symbol N); format: in vivo, redroot pigweed (Amaranthus retroflexus); settings: amount of applied herbicide 320 g/ha
In short: as §5

wild oat [10] = assay: Test Example 4: herbicidal effect by soil treatment (Table 19, symbol I); format: in vivo, wild oat (Avena fatua); settings: amount of applied herbicide 320 g/ha
In short: as §5

Italian ryegrass [11] = assay: Test Example 4: herbicidal effect by soil treatment (Table 19, symbol K); format: in vivo, Italian ryegrass (Lolium multiflorum); settings: amount of applied herbicide 320 g/ha
In short: as §5

green foxtail [12] = assay: Test Example 4: herbicidal effect by soil treatment (Table 19, symbol G); format: in vivo, green foxtail (Setaria viridis); settings: amount of applied herbicide 320 g/ha
In short: as §5

green foxtail [13] = assay: Test Example 5: herbicidal effect by foliage application, plastic box (Table 20, symbol G); format: in vivo, green foxtail (Setaria viridis); settings: foliage application, 320 g/ha, three weeks after application
In short: as §1

windgrass = assay: Test Example 5: herbicidal effect by foliage application, plastic box (Table 20, symbol L); format: in vivo, windgrass (Apera spica-venti); settings: foliage application, 320 g/ha, three weeks after application
In short: as §1

lambsquarters = assay: Test Example 5: herbicidal effect by foliage application, plastic box (Table 20, symbol O); format: in vivo, lambsquarters (Chenopodium album); settings: foliage application, 320 g/ha, three weeks after application
In short: as §1

velvetleaf [14] = assay: Test Example 4: herbicidal effect by soil treatment (Table 19, symbol M); format: in vivo, velvetleaf (Abutilon theophrasti); settings: amount of applied herbicide 320 g/ha
In short: as §5

oval-leafed pondweed [15] = assay: Test Example 2: herbicidal activity, application during weed generation under submerged conditions (Table 17, symbol C); format: in vivo, oval-leafed pondweed (Monochoria vaginalis); settings: AAH 320 g/ha; application during weed generation, submerged conditions
Protocol: as §2

barnyard grass [16] = assay: Test Example 4: herbicidal effect by soil treatment (Table 19, symbol H); format: in vivo, barnyard grass (Echinochloa crus-galli); settings: amount of applied herbicide 320 g/ha
In short: as §5

Chinese sprangletop = assay: Test Example 3: herbicidal effect by foliage application, Wagner pot (Table 18, symbol D); format: in vivo, chinese sprangletop (Leptochloa chinensis); settings: 320 g/ha
In short: as §3

Japanese bulrush [17] = assay: Test Example 1: herbicidal activity, application before weed generation under submerged conditions (Table 16, symbol B); format: in vivo, Japanese bulrush (Schoenoplectus juncoides); settings: 320 g/ha applied herbicide
In short: as §4

barnyard grass [18] = assay: Test Example 3: herbicidal effect by foliage application, Wagner pot (Table 18, symbol H); format: in vivo, barnyard grass (Echinochloa crus-galli); settings: 320 g/ha
In short: as §3

redroot pigweed [19] = assay: Test Example 5: herbicidal effect by foliage application, plastic box (Table 20, symbol N); format: in vivo, redroot pigweed (Amaranthus retroflexus); settings: foliage application, 320 g/ha, three weeks after application
In short: as §1

barnyard grass [20] = assay: Test Example 5: herbicidal effect by foliage application, plastic box (Table 20, symbol H); format: in vivo, barnyard grass (Echinochloa crus-galli); settings: foliage application, 320 g/ha, three weeks after application
In short: as §1

velvetleaf [21] = assay: Test Example 5: herbicidal effect by foliage application, plastic box (Table 20, symbol M); format: in vivo, velvetleaf (Abutilon theophrasti); settings: foliage application, 320 g/ha, three weeks after application
In short: as §1

late watergrass = assay: Test Example 1: herbicidal activity, application before weed generation under submerged conditions (Table 16, symbol A); format: in vivo, late watergrass (Echinochloa oryzicola); settings: 320 g/ha applied herbicide
In short: as §4

CCOc1ccc(-c2sc3ccccc3c2-c2c(O)c(C)nn(C)c2=O)cc1 [1-013]
herbicidal effect grade, R: persian speedwell (persian speedwell): 5 (Herbicidal rate of 90% or more (almost completely withered)) | herbicidal effect grade, P: chickweed (chickweed): 5 (Herbicidal rate of 90% or more (almost completely withered)) | herbicidal effect grade, F: southern crabgrass (southern crabgrass [1]): 0 (Herbicidal rate of 5% or less (almost no effect)) | herbicidal effect grade, J: blackgrass (blackgrass [2]): 0 (Herbicidal rate of 5% or less (almost no effect)) | herbicidal effect rating, B: Japanese bulrush (Japanese bulrush [3]): 3 (Herbicidal rate of 40% or more and less than 70%) | herbicidal effect on E (rice flat sedge), rating 0-5 (rice flat sedge): 5 (Herbicidal rate of 90% or more (almost completely withered)) | Herbicidal effect on C: oval-leafed pondweed (grade 0-5) (oval-leafed pondweed [4]): 3 (Herbicidal rate of 40% or more and less than 70%) | herbicidal effect grade, K: Italian ryegrass (Italian ryegrass [5]): 3 (Herbicidal rate of 40% or more and less than 70%) | herbicidal effect rating, J: blackgrass (blackgrass [6]): 0 (Herbicidal rate of 5% or less (almost no effect)) | herbicidal effect grade, I: wild oat (wild oat [7]): 0 (Herbicidal rate of 5% or less (almost no effect)) | herbicidal effect rating, F: southern crabgrass (southern crabgrass [8]): 0 (Herbicidal rate of 5% or less (almost no effect)) | herbicidal effect rating, N: redroot pigweed (redroot pigweed [9]): 3 (Herbicidal rate of 40% or more and less than 70%) | herbicidal effect rating, I: wild oat (wild oat [10]): 0 (Herbicidal rate of 5% or less (almost no effect)) | herbicidal effect rating, K: Italian ryegrass (Italian ryegrass [11]): 0 (Herbicidal rate of 5% or less (almost no effect)) | herbicidal effect rating, G: green foxtail (green foxtail [12]): 5 (Herbicidal rate of 90% or more (almost completely withered)) | herbicidal effect grade, G: green foxtail (green foxtail [13]): 5 (Herbicidal rate of 90% or more (almost completely withered)) | herbicidal effect grade, L: windgrass (windgrass): 0 (Herbicidal rate of 5% or less (almost no effect)) | herbicidal effect grade, O: lambsquarters (lambsquarters): 3 (Herbicidal rate of 40% or more and less than 70%) | herbicidal effect rating, M: velvetleaf (velvetleaf [14]): 0 (Herbicidal rate of 5% or less (almost no effect)) | herbicidal effect rating, C: oval-leafed pondweed (oval-leafed pondweed [15]): 3 (Herbicidal rate of 40% or more and less than 70%) | herbicidal effect rating, H: barnyard grass (barnyard grass [16]): 4 (Herbicidal rate of 70% or more and less than 90%) | herbicidal effect on D (Chinese sprangletop), rating 0-5 (Chinese sprangletop): 1 (Herbicidal rate of 5% or more and less than 20%) | Herbicidal effect on B: Japanese bulrush (grade 0-5) (Japanese bulrush [17]): 4 (Herbicidal rate of 70% or more and less than 90%) | herbicidal effect on H (barnyard grass), rating 0-5 (barnyard grass [18]): 5 (Herbicidal rate of 90% or more (almost completely withered)) | herbicidal effect grade, N: redroot pigweed (redroot pigweed [19]): 3 (Herbicidal rate of 40% or more and less than 70%) | herbicidal effect grade, H: barnyard grass (barnyard grass [20]): 4 (Herbicidal rate of 70% or more and less than 90%) | herbicidal effect grade, M: velvetleaf (velvetleaf [21]): 5 (Herbicidal rate of 90% or more (almost completely withered)) | Herbicidal effect on A: late watergrass (grade 0-5) (late watergrass): 4 (Herbicidal rate of 70% or more and less than 90%)
